The test system of test [1] is UVB radiation-induced skin tumor. Kind of test: Chemoprevention of UVB-induced skin cancer. The following applies: topical 200 μl of 10% iso-C15, 30 weeks, vs vehicle-treated group. It is filed as in vivo, SKH-1 hairless mice. The procedure:
13-methyltetradecanoic acid (iso-C15) was prepared by dissolving in NaOH solution and then in 0.8% Tween 80 with pH 7.5, with resulting concentration 10%.
Forty female SKH-1 hairless mice were divided into control and test groups, with 20 in each. The mice in both groups were treated topically once with 5.12 μg of DMBA dissolved in 200 μl acetone per mouse to achieve tumor initiation. One week later (day 8), animals in the test group were applied topically with 200 μl iso-C15 per application per mouse per day. The control group received 200 μl Tween 80 per application per mouse per day. Thirty minutes later, the animals in both groups were exposed to UVB (290–320 nm) radiation at a dose of 180 mJ/cm^2 per day to achieve UVB radiation-induced tumor promotion. The iso-C15 or vehicle treatments followed by UVB irradiation were performed twice a week up to 30 weeks from the start of UVB exposure. The animals were evaluated for tumor incidence at the end of 30 weeks.

The subject of test [2] is SNU-423 human hepatocellular carcinoma cells. Description: Western blot analysis of caspase target proteins Lamin B and RB. The settings on record: 1% iso-C15 (60 μg/ml). The test is classed as cell-based. As to the method:
(§1) For Western blot assay, each cell pellet collected from 1% iso-C15 or control treated cultures was lysed in 150 μl lysis buffer with 0.5% NP-40, 0.5% deoxycholic acid and 1 mM PMSF. The cell lysates were mixed with equal volume 2× Laemmli buffer and boiled for 5 min before loaded into gel wells. Proteins were resolved in an 8% SDS-PAGE gel and transferred to nitrocellulose filter membrane. The filters were blocked with PBS-T (PBS with 0.1% Tween 20) containing 5% nonfat dry milk (Bio-Rad, Richmond, Calif.) for 1 hr and then incubated for 1 hr with proper dilution of one primary antibody in PBS-T containing 2% nonfat dry milk. The filters then were washed in PBS-T 5 min for 6 times and incubated with a 1:8000 dilution of HRP secondary antibody in PBS-T with 2% nonfat dry milk for 1 hr. After 6 washes in PBS-T, immune complexes were visualized on film using the ECL nonradioactive detection system (Amersham, Arlington Heights, Ill.). After detected with one primary antibody, the filter was striped with 0.1 mM Tris pH 7.5 and 0.05 mM β-metacapenanol at 50° C. for 30 min. The filters were washed in 300 ml PBS-T buffer for 10 min twice before blocking with PBS-T with 5% nonfat dry milk. The membranes were then reprobed with monoclonal mouse anti-human β-actin to determine the equal loading of protein for each well.
(§2) The cleavages of Lamin B, a caspase target protein, in apoptotic SNU-423 human hepatocellular carcinoma cells and K562 human leukemia cells were shown in FIGS. 14 and 15, respectively. The cells were treated with 1% control solution and 1% iso-C15 for the length of time indicated. Cell lysates were separated by SDS-PAGE. Lamin B was detected by immunoblotting with a monoclonal antibody. […] The Western blot analysis of RB protein in SNU-423 and K562 cells were shown in FIGS. 16 and 17, respectively.
(Immunoblotting shows a protein as a band on a membrane.)

For test [3], the system named is K562 human leukemia cells. The test is described as above. The test is classed as cell-based. The settings on record: 1% iso-C15 (60 μg/ml). The procedure:
as §1, §2

A further test deals with SNU-1 cells. Description: In situ cell death detection (TUNEL, fluorescence microscopy). The test is classed as cell-based, human. The following applies: 60 μg/ml, 8 hours. From the text:
(§3) In Situ Cell Death Detection Kit, POD (Mannheim Boehringer GmbH) was used to detect the individual apoptotic cells. Cleavage of genomic DNA during apoptosis may yield double-stranded, low molecular weight DNA fragments as well as single strand breaks in high molecular weight DNA. Those DNA strand breaks can be identified by labeling free 3′-OH termini with modified nucleotides in an enzymatic reaction. In this kit terminal deoxynucleotidyl transferase (TdT) is used to label free 3′-OH ends in genomic DNA with fluorescein-dUTP. The incorporated fluorescein is visualized under fluorescence microscope directly. The incorporated fluorescein can also bind to anti-fluorescein antibody POD and be detected by substrate reaction. Stained cells can be analyzed under light microscope.
(§4) Four human tumor cell lines, K-562 human leukemia, SNU-1 human gastric carcinoma cell lines, MCF-7 human breast adenocarcinoma and H1688 human small cell lung carcinoma cell lines, as well as Human PBLs were treated with iso-C15 (60 μg/ml).
SNU-1 cells treated with iso-C15 for 8 hours were added with TUNEL-reaction mixture and incubated 60 min at 37° C. After washing with PBS for three times, cell morphology was analyzed directly under fluorescence microscopy.

The test system of a further test is K562 leukemia cell line. Kind of test: DNA fragmentation gel electrophoresis. The test is classed as cell-based, human. The following applies: 60 μg/ml. As to the method: The gel electrophoresis assay was used for the detection of apoptosis-specific internucleosonal DNA degradation in these cells. […] After centrifuged at 14,000 RPM for 20 min at 4° C., the supernatants were transferred to new tubes and treated with RNase and proteinase K respectively. Supernatants were extracted with phenol/chloroform twice, and fragmented DNA was precipitated in ethanol. Samples were electrophoresed in a 1.5% agarose gel in 1× TAE buffer. The gel was stained with ethidium bromide and destained with distilled water. The fragmented DNA was then visualized under UV light.

Another test concerns H1688 cancer cells. Kind of test: In situ cell death detection, POD. The settings on record: 60 μg/ml, 8 hours. It is filed as cell-based, human.
Source text: as §3, §4
(§5) H1688, K-562 and DU145 human cancer cells and normal human PBLs were added with POD and incubated 30 min at 37° C., washed three times with PBS, then reacted with substrate AEC and incubated for 10 min at room temperature. The cells were analyzed under light microscope. […] It is evidenced that iso-C15 induces apoptosis of cancer cells but not normal human cells.

Another test relates to K-562 leukemia cells. Description: In situ cell death detection, POD. It is filed as cell-based, human. The settings on record: 60 μg/ml, 2 and 4 hours.
Source text: as §3, §4, §5

Test [4] relates to DMBA-induced mammary cancer. Description: Chemoprevention of DMBA-induced mammary carcinogenesis in rats. The following applies: 0.5 ml of 0.7% solution intragastric, five times a week, twenty weeks after DMBA. It is filed as in vivo, Sprague-Dawley rats. As to the method:
13-methyltetradecanoic acid (iso-C15) was prepared by dissolving in NaOH solution and then in 0.35% Tween 80 with pH 7.5.
Fifty female Sprague-Dawley rats were maintained on laboratory chow. At 50 days of age, rats were given a single dose (5 mg) of DMBA (Sigma Chemical Co., St. Louis. Mo.) via an intragastric tube. Seven days after DMBA administration, the rats were randomly divided into two groups of 25. Each rat in the control group was given 0.5 ml of 0.35% Tween 80 five times a week via an intragastric tube throughout the experiment, while each in the test group was given 0.5 ml iso-C15 solution of concentration 0.7%, five times a week. Food and water were available ad libitum. Twenty weeks after DMBA administration, all rats were scarified, and all palpable tumors were removed.

From patent publication US7070965B1, “Small molecule anticancer compounds and related production process” (priority 1998, dated 2006) come the findings set out here.

As to `CC(C)CCCCCCCCCCCC(=O)O` [iso-C15, 13-methyltetradecanoic acid], in test [1], the “reduction in tumor incidence” value stood at 40% and the “reduction of tumor volume” value was 90%. Besides, in test [2], the “Lamin B cleavage” value was “cleaved 45 kDa and 32 kDa products”; the “RB hypophosphorylation and cleavage” value is “induced the change of hyperphosphorylated RB (pRB120/hyper) to hypophosphorylated form (pRB115/hypo)”. For the same compound, in test [3], the “Lamin B cleavage” value is listed as “cleaved 45 kDa products”; the “RB hypophosphorylation and cleavage” value is on record as “induced the change of hyperphosphorylated RB (pRB120/hyper) to hypophosphorylated form (pRB115/hypo)”. Besides, the “apoptotic cells, TUNEL fluorescence” value in the test on SNU-1 cells is “Several yellow fluorescent spots of apoptotic cells were noted”. Moreover, in the test with K562 leukemia cell line, the “apoptotic DNA fragmentation” value is “fragmented low molecular weight DNA bands were seen at 2 hour and were prominent at 8 hour treated”. Also, the “apoptotic cells stained, POD” value in the test on H1688 cancer cells was “apoptotic H1688 cancer cells (stained red) were found”. Moreover, in the test with K-562 leukemia cells, the “apoptotic cells stained, POD” value is reported as “some cells started apoptosis (stained red) 2 hours after treatment”. Moreover, the “No. of rats with tumors” value in test [4] (25 rats) came out at 3. Moreover, in test [4], the Mean tumor weight turned out to be 0.8 ± 1.3 g, the No. of tumors was 4, the “No. of tumors per rat” value is reported as 0.2 ± 0.1 and the “No. of tumors/tumor bearing rat” value stood at 1.3 ± 0.5. The same compound yielded a tumor incidence in test [4] of 12%.
